Laboratory results published in patent US12303497B2, “Anti-androgens for the treatment of metastatic castration-sensitive prostate cancer” (priority 2019, dated 2025).

What was measured:
AR = AR (Homo sapiens, UniProt P10275); details: cited from earlier work
T877A AR mutant = T877A AR mutant (Homo sapiens, UniProt P10275, T878A); details: literature; cited from earlier work
Plasma protein binding = assay type: in vitro ADME
[1] = Single oral administration of radiolabeled apalutamide (AUC share, excretion); assay type: in vivo
[2] = system: multidrug and toxin extrusions (MATEs); assay: In vitro transporter inhibition; assay type: in vitro ADME
[3] = human, in vivo
P-gp = P-gp (Homo sapiens, UniProt P08183); details: not told
BCRP = BCRP (Homo sapiens, UniProt Q9UNQ0); details: not told
OATP1B1 = OATP1B1 (Homo sapiens, UniProt Q9Y6L6)
OATP1B3 = OATP1B3 (Homo sapiens, UniProt Q9NPD5)
CYP2B6 = CYP2B6 (Homo sapiens, UniProt P20813)
CYP2C8 = target: T1, CYP2C8 (Homo sapiens, UniProt P10632)
T1 sequence (P10632 1-490): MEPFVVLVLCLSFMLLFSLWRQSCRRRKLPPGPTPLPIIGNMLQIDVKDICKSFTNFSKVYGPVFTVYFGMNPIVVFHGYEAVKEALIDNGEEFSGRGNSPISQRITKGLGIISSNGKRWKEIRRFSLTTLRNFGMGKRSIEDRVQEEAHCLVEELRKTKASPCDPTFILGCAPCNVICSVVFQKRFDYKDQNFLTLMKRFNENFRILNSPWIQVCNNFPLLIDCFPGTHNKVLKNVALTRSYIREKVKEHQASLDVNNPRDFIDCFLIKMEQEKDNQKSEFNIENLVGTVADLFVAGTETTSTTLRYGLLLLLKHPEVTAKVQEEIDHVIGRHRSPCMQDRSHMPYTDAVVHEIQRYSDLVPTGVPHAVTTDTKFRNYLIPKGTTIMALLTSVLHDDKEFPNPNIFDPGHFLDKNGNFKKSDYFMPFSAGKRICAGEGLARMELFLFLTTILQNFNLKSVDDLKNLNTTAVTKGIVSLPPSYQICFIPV

CYP2C9 = CYP2C9 (Homo sapiens, UniProt P11712)
CYP2C19 = CYP2C19 (Homo sapiens, UniProt P33261)
CYP3A4 = CYP3A4 (Homo sapiens, UniProt P08684)
CYP2D6 = CYP2D6 (Homo sapiens, UniProt P10635)
[4] = target: organic cation transporter 2 (OCT2) (Homo sapiens, UniProt O15244)
[5] = target: organic anion transporter 3 (OAT3) (Homo sapiens, UniProt Q8TCC7)
[6] = target: organic anion transporter 1 (Homo sapiens, UniProt Q4U2R8)
CYP1A2 = CYP1A2 (Homo sapiens, UniProt P05177); assay: In vitro effect on CYP; details: therapeutically relevant concentrations
[7] = up to 70 days after single oral radiolabeled dose

Sequence of organic anion transporter 1 (Q4U2R8 whole entry): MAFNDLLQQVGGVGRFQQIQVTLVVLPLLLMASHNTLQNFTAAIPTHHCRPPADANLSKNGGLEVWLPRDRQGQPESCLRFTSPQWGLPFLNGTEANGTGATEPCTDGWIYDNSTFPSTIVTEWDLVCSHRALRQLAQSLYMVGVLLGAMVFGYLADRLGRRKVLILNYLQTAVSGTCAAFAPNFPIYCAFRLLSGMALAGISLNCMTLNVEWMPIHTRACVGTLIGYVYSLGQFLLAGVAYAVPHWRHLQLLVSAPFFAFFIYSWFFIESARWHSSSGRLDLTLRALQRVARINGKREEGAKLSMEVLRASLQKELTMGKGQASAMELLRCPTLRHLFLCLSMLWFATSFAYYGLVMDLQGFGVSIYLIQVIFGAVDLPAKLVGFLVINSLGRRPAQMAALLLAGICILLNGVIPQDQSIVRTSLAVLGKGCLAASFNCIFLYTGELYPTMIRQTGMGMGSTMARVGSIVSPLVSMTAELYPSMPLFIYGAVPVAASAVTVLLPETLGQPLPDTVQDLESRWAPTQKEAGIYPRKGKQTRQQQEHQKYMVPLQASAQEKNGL
Sequence of P-gp (P08183 whole entry): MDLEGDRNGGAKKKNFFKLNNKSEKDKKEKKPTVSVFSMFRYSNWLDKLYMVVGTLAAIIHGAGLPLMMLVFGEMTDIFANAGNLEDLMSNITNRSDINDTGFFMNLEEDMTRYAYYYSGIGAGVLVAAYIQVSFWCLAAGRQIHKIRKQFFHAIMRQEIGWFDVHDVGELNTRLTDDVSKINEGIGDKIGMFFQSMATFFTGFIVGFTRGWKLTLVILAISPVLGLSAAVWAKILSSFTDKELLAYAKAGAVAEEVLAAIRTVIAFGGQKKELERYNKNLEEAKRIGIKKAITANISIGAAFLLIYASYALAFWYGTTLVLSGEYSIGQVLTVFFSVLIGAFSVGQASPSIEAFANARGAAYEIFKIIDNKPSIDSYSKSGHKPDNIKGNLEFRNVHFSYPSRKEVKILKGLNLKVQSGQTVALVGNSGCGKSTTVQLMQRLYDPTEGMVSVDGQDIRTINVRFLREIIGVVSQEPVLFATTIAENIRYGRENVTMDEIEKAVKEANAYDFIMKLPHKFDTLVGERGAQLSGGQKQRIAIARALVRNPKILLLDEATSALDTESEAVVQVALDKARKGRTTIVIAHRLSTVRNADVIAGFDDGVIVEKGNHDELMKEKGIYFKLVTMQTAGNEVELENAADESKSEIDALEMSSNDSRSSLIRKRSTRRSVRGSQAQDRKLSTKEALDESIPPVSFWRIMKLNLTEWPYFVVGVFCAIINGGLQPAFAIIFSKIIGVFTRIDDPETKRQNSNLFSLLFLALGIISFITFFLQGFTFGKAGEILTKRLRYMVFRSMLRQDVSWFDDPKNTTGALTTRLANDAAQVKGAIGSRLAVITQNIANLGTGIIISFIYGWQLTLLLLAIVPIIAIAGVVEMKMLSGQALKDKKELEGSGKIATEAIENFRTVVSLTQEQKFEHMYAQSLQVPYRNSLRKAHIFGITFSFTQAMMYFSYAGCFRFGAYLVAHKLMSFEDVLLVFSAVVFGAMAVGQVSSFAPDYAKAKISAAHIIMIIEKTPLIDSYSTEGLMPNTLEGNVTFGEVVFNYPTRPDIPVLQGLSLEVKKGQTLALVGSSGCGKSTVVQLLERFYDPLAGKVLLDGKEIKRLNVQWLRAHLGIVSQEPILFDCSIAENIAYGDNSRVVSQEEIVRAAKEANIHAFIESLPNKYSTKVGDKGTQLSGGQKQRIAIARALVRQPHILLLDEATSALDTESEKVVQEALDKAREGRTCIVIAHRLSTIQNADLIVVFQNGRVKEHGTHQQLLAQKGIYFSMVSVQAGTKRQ
Sequence of CYP2C9 (P11712 whole entry): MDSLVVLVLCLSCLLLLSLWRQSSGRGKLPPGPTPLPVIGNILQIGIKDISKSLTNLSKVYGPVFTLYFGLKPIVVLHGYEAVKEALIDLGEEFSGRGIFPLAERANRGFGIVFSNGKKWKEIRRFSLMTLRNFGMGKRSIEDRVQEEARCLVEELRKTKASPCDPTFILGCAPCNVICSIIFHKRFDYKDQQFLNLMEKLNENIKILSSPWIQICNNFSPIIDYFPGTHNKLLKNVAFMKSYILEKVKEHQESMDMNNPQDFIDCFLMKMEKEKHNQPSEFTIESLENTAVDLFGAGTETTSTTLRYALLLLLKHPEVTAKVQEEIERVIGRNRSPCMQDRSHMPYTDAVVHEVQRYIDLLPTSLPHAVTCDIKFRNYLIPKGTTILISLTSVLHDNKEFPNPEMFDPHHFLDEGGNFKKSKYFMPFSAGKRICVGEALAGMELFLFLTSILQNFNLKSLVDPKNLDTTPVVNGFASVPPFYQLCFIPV
Sequence of AR (P10275 whole entry): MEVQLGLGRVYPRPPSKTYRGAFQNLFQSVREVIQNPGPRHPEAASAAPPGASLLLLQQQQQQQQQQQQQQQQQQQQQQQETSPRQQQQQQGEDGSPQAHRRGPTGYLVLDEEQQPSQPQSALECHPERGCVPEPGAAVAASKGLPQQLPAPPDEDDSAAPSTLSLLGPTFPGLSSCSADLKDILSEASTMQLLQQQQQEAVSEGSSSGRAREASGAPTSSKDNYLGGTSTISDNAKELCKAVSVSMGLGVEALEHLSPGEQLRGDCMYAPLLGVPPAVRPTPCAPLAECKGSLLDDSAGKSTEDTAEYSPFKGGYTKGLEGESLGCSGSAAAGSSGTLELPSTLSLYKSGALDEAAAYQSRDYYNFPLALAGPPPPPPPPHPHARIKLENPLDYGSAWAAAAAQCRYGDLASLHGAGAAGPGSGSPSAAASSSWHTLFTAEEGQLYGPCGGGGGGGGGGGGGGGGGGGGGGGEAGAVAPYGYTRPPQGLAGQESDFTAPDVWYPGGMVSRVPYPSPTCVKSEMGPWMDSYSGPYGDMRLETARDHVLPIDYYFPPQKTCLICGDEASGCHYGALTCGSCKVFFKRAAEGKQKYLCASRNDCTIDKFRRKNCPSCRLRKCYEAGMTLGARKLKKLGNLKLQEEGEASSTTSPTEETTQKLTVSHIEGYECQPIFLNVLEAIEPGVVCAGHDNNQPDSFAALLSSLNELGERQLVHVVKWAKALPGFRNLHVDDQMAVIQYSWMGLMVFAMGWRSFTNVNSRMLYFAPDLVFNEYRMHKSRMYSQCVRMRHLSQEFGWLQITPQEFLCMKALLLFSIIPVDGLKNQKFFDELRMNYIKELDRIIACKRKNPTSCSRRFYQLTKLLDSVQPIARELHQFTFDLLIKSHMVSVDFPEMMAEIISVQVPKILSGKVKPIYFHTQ
Sequence of T877A AR mutant (P10275 whole entry T878A): as the sequence (P10275 whole entry) above, with T878A counted along it
Sequence of OATP1B1 (Q9Y6L6 whole entry): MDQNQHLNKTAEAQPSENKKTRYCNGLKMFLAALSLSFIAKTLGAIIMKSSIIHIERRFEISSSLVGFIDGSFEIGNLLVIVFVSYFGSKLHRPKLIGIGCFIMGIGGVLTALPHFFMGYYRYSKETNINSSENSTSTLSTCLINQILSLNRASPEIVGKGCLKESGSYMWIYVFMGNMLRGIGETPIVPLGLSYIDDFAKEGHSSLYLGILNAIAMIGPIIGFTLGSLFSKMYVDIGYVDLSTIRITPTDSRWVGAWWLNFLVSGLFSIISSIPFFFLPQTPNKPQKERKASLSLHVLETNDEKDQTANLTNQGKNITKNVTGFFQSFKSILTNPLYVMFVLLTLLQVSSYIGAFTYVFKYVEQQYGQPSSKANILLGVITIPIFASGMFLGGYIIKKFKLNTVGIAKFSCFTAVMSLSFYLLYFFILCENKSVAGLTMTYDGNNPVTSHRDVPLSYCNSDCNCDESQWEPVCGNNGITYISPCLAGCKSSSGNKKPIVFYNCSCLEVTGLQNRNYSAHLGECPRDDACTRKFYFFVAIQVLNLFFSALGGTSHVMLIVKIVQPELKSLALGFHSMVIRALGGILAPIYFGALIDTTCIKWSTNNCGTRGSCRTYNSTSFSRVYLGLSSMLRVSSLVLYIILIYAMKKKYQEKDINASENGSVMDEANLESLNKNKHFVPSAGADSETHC
Sequence of CYP2C19 (P33261 whole entry): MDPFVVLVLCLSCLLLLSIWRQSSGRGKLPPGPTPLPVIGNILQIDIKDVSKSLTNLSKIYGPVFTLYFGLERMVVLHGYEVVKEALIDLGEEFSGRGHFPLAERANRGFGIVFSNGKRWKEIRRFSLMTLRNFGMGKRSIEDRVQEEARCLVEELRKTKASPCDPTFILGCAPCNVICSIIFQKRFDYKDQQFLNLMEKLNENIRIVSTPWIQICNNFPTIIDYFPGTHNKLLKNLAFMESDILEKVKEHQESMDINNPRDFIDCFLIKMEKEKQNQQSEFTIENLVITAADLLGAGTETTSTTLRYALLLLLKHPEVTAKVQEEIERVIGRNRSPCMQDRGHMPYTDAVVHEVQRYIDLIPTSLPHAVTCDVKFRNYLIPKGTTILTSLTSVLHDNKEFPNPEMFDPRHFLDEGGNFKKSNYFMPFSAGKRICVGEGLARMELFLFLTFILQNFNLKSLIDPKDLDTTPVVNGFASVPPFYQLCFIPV
Sequence of CYP3A4 (P08684 whole entry): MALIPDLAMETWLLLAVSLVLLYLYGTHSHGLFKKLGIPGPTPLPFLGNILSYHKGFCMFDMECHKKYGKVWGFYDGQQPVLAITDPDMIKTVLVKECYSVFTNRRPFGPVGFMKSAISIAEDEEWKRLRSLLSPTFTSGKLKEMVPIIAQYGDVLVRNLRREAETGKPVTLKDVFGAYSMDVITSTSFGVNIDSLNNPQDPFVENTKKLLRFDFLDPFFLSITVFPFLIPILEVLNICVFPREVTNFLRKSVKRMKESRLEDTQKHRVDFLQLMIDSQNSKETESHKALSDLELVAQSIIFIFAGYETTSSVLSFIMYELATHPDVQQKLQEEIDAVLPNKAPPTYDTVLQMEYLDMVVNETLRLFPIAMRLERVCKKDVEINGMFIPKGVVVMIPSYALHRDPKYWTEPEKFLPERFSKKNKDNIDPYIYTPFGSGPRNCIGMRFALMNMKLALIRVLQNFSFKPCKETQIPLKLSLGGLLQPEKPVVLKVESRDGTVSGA

CC(O)c1cc(C(=O)N[C@@H](C)Cn2ccc(-c3ccc(C#N)c(Cl)c3)n2)n[nH]1 (mixture of isomers) [Darolutamide, N-{(2S)-1-[3-(3-chloro-4-cyanophenyl)-1H-pyrazol-1-yl]propan-2-yl}-5-(1-hydroxyethyl)-1H-pyrazole-3-carboxamide]
Affinity of binding to AR (AR): high affinity

CC(C)(O)C(=O)Nc1ccc([N+](=O)[O-])c(C(F)(F)F)c1 [hydroxyflutamide]
Activity in T877A AR mutant (T877A AR mutant): AR agonists

N-desmethyl apalutamide
Bound to plasma proteins (Plasma protein binding): 95%
Share of the total AUC ([1]; single oral radiolabeled apalutamide 240 mg): 44%
Dose recovered in feces as this compound [1, 7]: 2%
Dose recovered in urine as this compound [1, 7]: 2.7%
Inhibition of MATEs [2]: inhibit
AUC at steady-state, mean [3]: 124 µg·h/mL
Cmax at steady-state, mean [3]: 5900 ng/mL
Pharmacokinetics in specific populations [3]: No clinically significant differences
Substrate for P-gp (P-gp): substrates
Substrate for BCRP (BCRP): not
Substrate for OATP1B1 (OATP1B1): not
Substrate for OATP1B3 (OATP1B3): not
CYP2B6 inhibition (CYP2B6): moderate inhibitors
CYP2C8 inhibition (CYP2C8): moderate inhibitors
CYP2C9 inhibition (CYP2C9): weak inhibitors
CYP2C19 inhibition (CYP2C19): weak inhibitors
CYP3A4 inhibition (CYP3A4): weak inhibitors
Effect on CYP2D6 (CYP2D6): do not affect
Inhibition of OCT2 [4]: inhibit
Inhibition of OAT3 [5]: inhibit
Inhibition of organic anion transporter 1 [6]: do not inhibit
Effect on CYP1A2 (CYP1A2): do not affect
